Results taken from patent publication US20110092505A1, “ORGANIC COMPOUNDS” (priority 2008, published 2011).
Read-outs that look alike come from different tables or passages of the source.

What was measured:
[1] = biological target: T1, protein kinase D3 (PKD3) (Homo sapiens, UniProt O94806); test: PKD3 TR-FRET (LANCE) kinase assay; type: biochemical; details: full length wild-type enzyme, 20 μM ATP, syntide-2 substrate; read-out: Inhibitory Activity PKD3
T1 construct: This assay is performed with full length wild-type enzyme that is purchased from Invitrogen; purchased Invitrogen
T1 sequence (O94806 1-890): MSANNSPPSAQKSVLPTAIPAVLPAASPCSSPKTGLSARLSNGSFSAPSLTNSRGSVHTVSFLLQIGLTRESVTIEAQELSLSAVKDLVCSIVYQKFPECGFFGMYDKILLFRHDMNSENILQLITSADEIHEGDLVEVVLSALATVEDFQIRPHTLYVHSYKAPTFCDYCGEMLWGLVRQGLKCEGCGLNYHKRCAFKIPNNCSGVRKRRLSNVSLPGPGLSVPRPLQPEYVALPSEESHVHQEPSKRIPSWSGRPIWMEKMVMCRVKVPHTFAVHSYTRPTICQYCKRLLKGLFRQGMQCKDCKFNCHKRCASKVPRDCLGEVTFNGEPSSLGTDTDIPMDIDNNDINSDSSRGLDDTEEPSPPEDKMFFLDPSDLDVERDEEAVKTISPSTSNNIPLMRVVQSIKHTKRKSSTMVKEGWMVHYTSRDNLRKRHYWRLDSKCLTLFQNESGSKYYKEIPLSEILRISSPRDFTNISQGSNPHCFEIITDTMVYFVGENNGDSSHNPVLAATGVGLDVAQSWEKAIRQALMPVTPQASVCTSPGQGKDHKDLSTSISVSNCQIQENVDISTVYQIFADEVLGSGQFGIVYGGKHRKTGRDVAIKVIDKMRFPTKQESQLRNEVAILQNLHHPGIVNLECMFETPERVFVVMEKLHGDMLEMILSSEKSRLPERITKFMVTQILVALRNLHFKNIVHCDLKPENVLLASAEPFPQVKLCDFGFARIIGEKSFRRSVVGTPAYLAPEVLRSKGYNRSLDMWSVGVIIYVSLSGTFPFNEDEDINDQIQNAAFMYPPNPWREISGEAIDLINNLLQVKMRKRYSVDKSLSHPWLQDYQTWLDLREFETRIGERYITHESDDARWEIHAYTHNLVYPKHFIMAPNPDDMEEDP
Description: The assay to measure protein kinase D3 (PKD3) activity is a time-resolved fluorescence resonance transfer (TR-FRET) assay using PerkinElmer's LANCE™ technology. In this case, a biotinylated syntide-2 peptide is used as the substrate in this reaction. Phosphorylation of the syntide-2 substrate is detected by a specific antibody that recognizes the phosphorylated peptide. A second fluorophore, APC, is conjugated to streptavidin that binds the biotinylated syntide-2 peptide. […] Therefore, when the europium labeled secondary antibody binds on the phosphorylated peptide, it is brought into close contact with the APC and excites this fluorophore.
This assay is performed with full length wild-type enzyme that is purchased from Invitrogen. The reaction buffer consists of 35 mM Tris-HCl pH7.5, 5 mM MgCl2, 0.02% Tween-20, 20 μM ATP, 1 mM DTT and 0.2 μg/mL PKD3 enzyme. The enzyme reaction is initiated by the addition of 2 μM syntide-2 peptide substrate and the reaction carried out for 50 minutes at room temperature. The reaction is stopped by a stop/detection buffer consisting of 50 mM EDTA, 0.18 mg/mL rabbit polyclonal anti-phospho Syntide-2 antibody, 0.5 nM europium labeled anti-rabbit IgG and 10 nM streptavidin conjugated APC. After a one hour incubation with the stop/detection buffer, the reaction is read on an Envision 2100 Reader using a LANCE™ Eu/APC dual protocol. […] IC50 values are calculated using an Activity Base (IDBS) software program.

[2] = system: agonist-dependent nuclear export of HDAC5; test: HDAC5 nuclear export assay (GFP-HDAC5, Cellomics imaging); type: cell-based; details: Rattus norvegicus, Ventricular myocyte, 2 h, read-out: Inhibitory Activity HDAC
Method: Compounds are evaluated in the HDAC5 nuclear export assay, a 384-well plate-based assay that enables high throughput screening (HTS) to identify small molecules that block agonist-dependent nuclear export of HDAC5. […] Neonatal rat ventricular myocytes (NRVMs) are infected with GFP-HDAC5 encoding virus and plated on gelatin-coated 384-well dishes. […] Following two hours of stimulation, cells are fixed and GFP-HDAC5 localization quantified using the Cellomics system, which provides a read-out of relative fluorescence intensity in the cytoplasmic versus nuclear compartment.

[3] = neonatal rat ventricular myocytes, PGF2α stimulation, two hours

Row | SMILES | IC50 [1] [nM] | IC50 [2, 3] [nM] | IC50 [2] [nM]
1 | NC(=O)c1cc(-c2ccnc(NCc3ccccc3Cl)c2)nc(N2CCNCC2)c1 [2′-(2-Chlorobenzylamino-6-piperazin-1-yl-[2,4′]bipyridinyl-4-carboxylic acid amide] | 31 |  | 
2 | N#CCNC(=O)c1ccc(-c2ccnc(NC3CCCCC3)c2)nc1N1CCNCC1 [2′-Cyclohexylamino-6-piperazin-1-yl-[2,4′]bipyridinyl-5-carbonxylic acid cyanomethyl-amide] | 114 | > 1000 | 
3 | NC(=O)c1cc(-c2ccnc(NCCc3ccc(O)cc3)c2)nc(N2CCNCC2)c1 [2′-[2-(4-Hydroxyphenyl)ethylamino]-6-piperazin-1-yl-[2,4′]bipyridinyl-4-carboxylic acid amide] | 2 |  | 
4 | c1cc(-c2cc(-c3nnco3)cc(N3CCNCC3)n2)cc(NC2CCCCC2)n1 [Cyclohexyl-(4-[1,3,4]oxadiazol-2-yl-6-piperazin-1-yl-[2,4′]bipyridinyl-2′-yl)-amine] | 14 | 126 | 
5 | O=[N+]([O-])c1cc(-c2ccnc(NC3CCCCC3)c2)nc(N2CCNCC2)c1 [Cyclohexyl-(4-nitro-6-piperazin-1-yl-[2,4′]bipyridinyl-2′-yl)-amine] | 5 | 235 | 
6 | FC(F)(F)c1cc(-c2ccnc(NC3CCCCC3)c2)nc(N2CCNCC2)c1 [Cyclohexyl-(6-piperazin-1-yl-4-trifluoromethyl-[2,4′]bipyridinyl-2′-yl)amine] | 13 |  | 342

Now from value to compound, other results behind:

Row | IC50 [1] [nM] | IC50 [2, 3] [nM] | SMILES | IC50 [2] [nM]
7 | 20 | 616 | NC(=O)c1cc(-c2ccnc(NC3CCCCC3)c2)nc(N2CCN3CCC[C@@H]3C2)c1 [2′-Cyclohexylamino-6-(R)-hexahydro-pyrrolo[1,2-a]pyrazin-2-yl-[2,4′]bipyridinyl-4-carboxylic acid amide] | 
8 | 166 | > 1000 | COC(=O)c1ccc(-c2ccnc(NC3CCCCC3)c2)nc1N1CCNCC1 [2′-Cyclohexylamino-6-piperazin-1-yl-[2,4′]bipyridinyl-5-carboxylic acid methyl ester] | 
9 | 74 | > 1000 | O=C1NCc2c1cc(-c1ccnc(NC3CCCCC3)c1)nc2N1CCn2cnnc2C1 [6-(2-Cyclohexylamino-pyridin-4yl)-4-(5,6-dihydro-8H-[1,2,4]triazolo[4,3-a]pyrazin-7-yl)-2,3-dihydro-pyrrolo[3,4-c]pyridin-1-one] | 
10 | 85 | > 1000 | CS(=O)(=O)c1cc(-c2ccnc(NC3CCCCC3)c2)nc(N2CCNCC2)c1 [Cyclohexyl-(4-methanesulfonyl-6-piperazin-1-yl-[2,4′]bipyridinyl-2′-yl)-amine] | 
11 | 38 | 421 | Nc1cc(-c2ccnc(NC3CCCCC3)c2)nc(N2CCNCC2)c1 [N*2′*-Cyclohexyl-6-piperazin-1-yl-[2,4′]bipyridinyl-4,2′-diamine] | 
12 | 252 | 423 | Fc1ccc(Nc2cc(-c3ccnc(NC4CCCCC4)c3)nc(N3CCNCC3)c2)cc1 [N*2′*-Cyclohexyl-N*4*-(4-fluoro-phenyl)-6-piperazin-1-yl-[2,4′]bipyridinyl-4,2′-diamine] | 
